target: Transforming acidic coiled-coil-containing protein 3 (Homo sapiens) (UniProt Q9Y6A5); experiment: inhibition of ARNT PAS-B/TACC3 complex formation – biochemical, AlphaScreen, cherry-picked samples, confirmation (AID 651703); conditions: AlphaScreen His-ARNT PAS-B / GST-TACC3 binding, luminescence;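 further: TACC3 partner is the GST-tagged E629A mutant dimer; hits lower the signal meaning they disrupt ARNT binding to TACC3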

`CC(=O)NC(c1ccco1)c1cc(F)c2cccnc2c1O` (configuration not stated) and `Cc1cccc(C(=O)Nc2nnc(-c3ccco3)o2)c1` are within 1.5-fold of each other in AC50: 5.76 µM for the first, 5.86 µM for the second.

`Cc1ccc2nc(-c3ccccn3)c(NC3CCCC3)n2c1` and `Nc1ccc2nc(-c3ccccn3)[nH]c2c1` are within 1.5-fold of each other in AC50: 10.2 µM for the first, 10.1 µM for the second.

Compared with `c1ccc(-c2nnc(-c3ccccn3)nn2)nc1`, `Cc1cccnc1Nc1nc(-c2ccccn2)cs1` is 38-fold lower in AC50: 28.8 µM for the first, 0.756 µM for the second.

First: CCc1ccc(NC(=O)CSc2ccc(-c3ccccn3)nn2)cc1
Second: Cc1ccc(NC(=O)CSc2n[nH]c(-c3ccccn3)n2)cc1
The AC50 of the first is 1.9-fold higher: 4.37 µM for the first, 2.26 µM for the second.

First: O=C(CN1C(=O)C2CCCCC2C1=O)Nc1nc(-c2ccccn2)cs1 (configuration not stated)
Second: O=C(COc1ccccc1F)Nc1nc(-c2ccccn2)cs1
The AC50 of the first is 1.6-fold lower: 5.15 µM for the first, 8.38 µM for the second.

Compared with `COc1ccc(CCNC(=O)CSc2nnc(Cc3csc(N)n3)n2C)cc1OC`, `COc1ccc(NC(=O)CSc2c(C)nn(-c3nnc(C)c(=O)[nH]3)c2C)cc1` is 2.4-fold lower in AC50: 61 µM for the first, 25.2 µM for the second.

First: COc1ccc(C(=O)Nc2nc(-c3ccccn3)cs2)cc1S(=O)(=O)N1CCOCC1
Second: Cc1ccc(C(=O)Nc2nc(-c3ccccn3)cs2)s1
The AC50 of the first is 1.5-fold lower: 3.13 µM for the first, 4.78 µM for the second.

Going from `Cc1ccnc2nc(C(=O)Nc3nc(-c4ccccn4)cs3)nn12` to `O=C(Nc1nnc(-c2ccccn2)o1)c1cccc(Cl)c1`, the AC50 rises from 2.53 µM to 30.2 µM (12-fold).

`CC(C)C1Cc2c(sc3ncnc(NN)c23)CO1` (configuration not stated) and `CCOC(=O)c1cnc(Nc2nc3ccccc3o2)nc1CN1CCN(C)CC1` are within 1.5-fold of each other in AC50: 7.67 µM for the first, 6.81 µM for the second.

`O=C(O)CSc1cc(NS(=O)(=O)c2cccc([N+](=O)[O-])c2)c2ccccc2c1O` and `CC1=C(SCc2ccccc2)C(=O)c2ccccc2C1=O` are within 1.5-fold of each other in AC50: 48.1 µM for the first, 39.7 µM for the second.

First: O=S(=O)(N[C@H]1CC[C@@H](CCn2cc(-c3ccccn3)nn2)O[C@H]1CO)c1cccc(Cl)c1
Second: O=C(N[C@H]1CC[C@@H](CCn2cc(-c3ccccn3)nn2)O[C@H]1CO)c1ccccc1
The AC50 of the first is 1.9-fold higher: 23.4 µM for the first, 12.1 µM for the second.

`O=C(N[C@H]1CC[C@@H](CCn2cc(-c3ccccn3)nn2)O[C@H]1CO)c1ccncc1` and `O=C(N[C@@H]1CC[C@H](CCn2cc(-c3ccccn3)nn2)O[C@@H]1CO)c1ccncc1` are within 1.5-fold of each other in AC50: 9.53 µM for the first, 8.23 µM for the second.

`COc1ccc(CNc2nc(-c3ccccn3)nnc2-c2ccccc2)cc1` and `CC(Nc1nc(-c2ccccn2)nnc1-c1ccccc1)c1ccccc1` (configuration not stated) are within 1.5-fold of each other in AC50: 0.611 µM for the first, 0.564 µM for the second.

First: c1ccc(-c2nnc(-c3ccccn3)nc2NCCCN2CCOCC2)cc1
Second: OCC1CCN(c2nc(-c3ccccn3)nnc2-c2ccccc2)CC1
The AC50 of the first is lower: < 0.5 µM for the first, 1.03 µM for the second.

First: O=C(N/N=C/c1cc(Cl)ccc1O)c1cccnc1
Second: O=C(N/N=C/c1cc(Cl)cc(Cl)c1O)c1ccncc1
The AC50 of the first is 2.1-fold higher: 7.68 µM for the first, 3.58 µM for the second.

First: C/C(CC(=O)Nc1ccc(N(C)C)cc1)=N\NC(=O)c1ccccn1
Second: N/C(=N\OC(=O)Cc1ccc([N+](=O)[O-])cc1)c1ccccn1
The AC50 of the first is 1.7-fold lower: 12.3 µM for the first, 21.5 µM for the second.

Compared with `Cc1cc(C)c(S(=O)(=O)N2CCOC2CNC(=O)C(=O)NCCCn2ccnc2)c(C)c1` (configuration not stated), `O=C(O)C1CCCCC1C(=O)NCCCn1ccnc1` (configuration not stated) is 9.7-fold higher in AC50: 5.58 µM for the first, 54.4 µM for the second.

First: Cc1nnc(NC(=O)c2ccc(S(=O)(=O)N3CCCCC3C)cc2)o1 (configuration not stated)
Second: Cc1nnc(NC(=O)C2CCN(S(=O)(=O)c3cc([N+](=O)[O-])ccc3Cl)CC2)o1
The AC50 of the first is 2.4-fold higher: 52 µM for the first, 21.9 µM for the second.

First: CCN(CC)c1ccc(Nc2nc(N3CCOCC3)c3ccccc3n2)cc1
Second: O=C(CNCc1ccccn1)Nc1cc(C(F)(F)F)ccc1N1CCOCC1
The AC50 of the first is 3.5-fold lower: 4.99 µM for the first, 17.4 µM for the second.

Going from `COc1cc(CCNC2=CC(=O)c3ncccc3C2=O)ccc1O` to `CC(NC1=CC(=O)c2cccnc2C1=O)C(O)c1ccccc1` (configuration not stated), the AC50 falls from 34.8 µM to 15.5 µM (2.2-fold).

Compared with `CCOc1ccc(NC(=O)c2c(NC(=O)CNCCN3CCOCC3)sc3c2CCC3)cc1`, `COc1cc(OC)cc(C(=O)Oc2c(CN3CCOCC3)cc(Cl)c3cccnc23)c1` is 2.1-fold higher in AC50: 14.6 µM for the first, 31.1 µM for the second.

Going from `O=C(CSc1cccc2cccnc12)Nc1cc(C(=O)O)cc(C(=O)O)c1` to `O=C(CSc1cccc2cccnc12)N1CCCC1`, the AC50 falls from 17.9 µM to 3.28 µM (5.5-fold).

`COc1ccc(C(=O)Cc2nnc(C)s2)c(OC)c1` and `O=C(Nc1nnc(-c2cccs2)o1)c1ccco1` are within 1.5-fold of each other in AC50: 67.3 µM for the first, 48.4 µM for the second.

First: Cc1cc(=O)n2c3c(c4c(cc13)c(CN(C)C)cc(=O)n4C)OC2
Second: COC(=O)C1=COC(C)C2CN3CCc4c([nH]c5cc(OC)c(OC)cc45)C3CC12 (configuration not stated)
The AC50 of the first is 3.8-fold lower: 17.7 µM for the first, 67.6 µM for the second.

Compared with `N#Cc1ccc(C(=O)Nc2nnc(-c3ccccn3)o2)cc1`, `Cc1ccc(-n2c(SCC(N)=O)nnc2-c2ccccn2)cc1` is 1.5-fold higher in AC50: 22.4 µM for the first, 34.7 µM for the second.

First: C=CCSc1nnc(-c2cccc3ccccc23)o1
Second: CCO/C=C1/C(=O)N(Cc2ccccc2)C(=O)c2ccccc21
The AC50 of the first is 5-fold lower: 5.8 µM for the first, 29 µM for the second.

Compared with `O=C(N[C@@H]1CC[C@@H](CCn2cc(-c3ccccn3)nn2)O[C@@H]1CO)c1cccnc1`, `O=C(NCCCn1ccnc1)c1ccc2nccnc2c1` is 5.2-fold higher in AC50: 13.1 µM for the first, 67.5 µM for the second.

Compared with `Oc1ccc(Br)cc1/C=N/Nc1ccccn1`, `O=C(NCCCn1ccnc1)Nc1ccc(Cl)c(Cl)c1` is 7.7-fold higher in AC50: 3.27 µM for the first, 25.2 µM for the second.

Molecule `CC(=O)[C@H]1[C@@H]2C(=O)N(c3cccc(Cl)c3)C(=O)[C@@H]2[C@H]2c3ccccc3C=CN21` has an AC50 of 6.22 µM.

Source: PubChem BioAssay AID651703 (Broad Institute, 2012)
